Data from patent publication US8436006B2, “2-amino-quinazoline derivatives useful as inhibitors of β-secretase (BACE)” (Jansssen Pharmaceutica N.V., priority 2004, dated 2013).

Key:
Type in all cases: biochemical
β-secretase (BACE) [1] = molecular target: T1, β-secretase (BACE) (Homo sapiens, UniProt P56817); assay: BACE Assay-1 (Example 158), MCA-substrate fluorescence; conditions: procedure of Example 158
T1 construct: purchased Panvera
Description: The following standards are reagents were used in this assay: Sodium Citrate trisodium salt dihydrate (Sigma), Citric Acid monohydrate (Merck), PEG8000 (Sigma), MCA-substrate (Bachem), β-secretase (BACE) (Panvera), 96-well plate zwart (Costar (Elscolab)), StatVal (Bachem).
The following standard assay buffer solution was prepared and used in this assay: 0.05 M, pH 5.0 mixture of sodium citrate trisodium salt dihydrate (9.56 g), citric acid monohydrate (3.68 g) and PEG8000 (0.50 g).
The MCA-substrate stock solution was prepared by mixing 10 mg MCA-substrate with 5 mL DMSO for a final solution concentration of 2.0 mg/mL. The substrate work solution was prepared by mixing 0.1 mL substrate in 1.90 mL assay buffer for a final concentration of 0.05 mM. The β-secretase (BACE) work solution was prepared by mixing 8 μL BACE in 2 mL assay buffer for a final concentration of 10 μg/mL.
The screen procedure for this assay was as follows. 60 μL of assay buffer was pippeted into each well of a 96-well plate. To each well was then pipetted 1 μL of test compound at the selected concentration. To each well was then added 20 μL of the β-secretase work solution and 20 μL of the MCA-substrate stock solution.
The procedure for the blank was as follows. 80 μL of assay buffer was pipetted into each well to be used as a blank control. To each well was then added 1 μL of DMSO and 20 μL of MCA-substrate solution in each well.
The procedure for the positive control was as follows. 60 μL of assay buffer was pipetted into each well to be used as a positive control. To each well was then added 1 μL of DMSO, 20 μL of BACE work solution and 20 μL of MCA-substrate stock solution.
For test compounds, measured at multiple concentrations, the measured T0 and T60 values were used to calculate an IC50 value using Graphpad Software (or PIR).

β-secretase (BACE) [2] = molecular target: T1, β-secretase (BACE); assay: BACE Assay-2 (Example 159), FS1 substrate, kinetic fluorescence; conditions: procedure of Example 159
Description: (§1) The FS1-substrate stock solution was prepared in DMSO as a 10 mg/mL solution. The FS1-substrate working solution was prepared by diluting the 10 mg/mL stock solution with substrate assay buffer to a final concentration of 300 μg/mL. The β-secretase (BACE) working solution was prepared by diluting a 0.83 mg/mL BACE stock solution with enzyme assay buffer to a final concentration of 4 μg/mL.
Test compounds were dissolved in DMSO at 10 mM.
(§2) The procedure for this assay was as follows: 15 μL of BACE working solution was pipetted into each well of a 96-well plate. To each well was then pipetted 2 μL of test compound at the selected concentration. Test compound and BACE were then mixed with a pipettor and incubated for 20 min at room temperature. To each well was then added 10 μL of the FS1 substrate working solution.
(§3) The procedure for the positive control was as follows: 15 μL of BACE working solution was pipetted into each well to be used as a positive control. To each well was then pipetted 2 μL of vehicle. Vehicle and BACE were then mixed with a pipettor and incubated for 20 min at room temperature. To each well was then added 10 μL of the FS1 substrate working solution.
For test compounds, measured at multiple concentrations, the measured T0 and T60 values were used to calculate an IC50 value using Graphpad Software (or PIR). For test compounds, Ki inhibition was determined as follows: For each compound concentration and positive control, rate of cleavage of substrate (Vi, where i=compound concentration in μM) was determined as Δ Fluorescence/Δ time (min). Cleavage rates (Vi) were plotted as a function of inhibitor concentration in μM [I]. The Ki was then determined by fitting the following equation to the graph of [I] vs Vi Y=aVmax/(50+24*(1+X/Ki)),

β-secretase (BACE) [3] = molecular target: T1, β-secretase (BACE); assay: BACE FS1% Inhibition Assay (Example 160); conditions: for inhibition at 3 µM / inhibition at 10 µM / inhibition at 0.3 µM / inhibition at 1 µM: read-out: % Inhibition (FS); for inhibition at 10 µM: 10 μM test compound
Description: The following reagents were used in this assay: sodium acetate, PEB8000 (Sigma), DMSO, HEPES, FS1 substrate [[…]], β-secretase (BACE) (Panvera), and 96-well plate (HE microplate, Molecular Devices). […] The FS1-substrate stock solution was prepared in DMSO as a 10 mg/mL solution. The FS1-substrate working solution was prepared by diluting the 10 mg/mL stock solution with substrate assay buffer to a final concentration of 300 μg/mL. The β-secretase (BACE) working solution was prepared by diluting a 0.83 mg/mL BACE stock solution with enzyme assay buffer to a final concentration of 4 μg/mL. Test compounds were dissolved in DMSO to 10 mM. […] The screening procedure for this assay was as follows: 15 μL of BACE working solution was pipetted into each well of a 96-well plate. To each well was the pipetted 2 μL of test compound at the selected concentration. Test compound and BACE were then mixed with a pipettor and incubated for 20 min at room temperature. To each well was then added 10 μL of the FS1 substrate working solution. The plates were then incubated for 1 hour at room temperature. […] The procedure for the blank was as follows. 15 μL of assay buffer was pipetted into each well to be used as a blank control. To each well was then added 2 μL of vehicle and 10 μL of FS1-substrate working solution. The plates were then incubated for 1 hour at room temperature. […] The procedure for the positive control was as follows: 15 μL of BACE working solution was pipetted into each well to be used as a positive control. To each well was then pipetted 2 μL of vehicle. Vehicle and BACE were then mixed with a pipettor and incubated for 20 min at room temperature. To each well was then added 10 μL of the FS1 substrate working solution. The plates were then incubated for 1 hour at room temperature. […] For test compounds, % inhibition was determined at each concentration as follows: [formula]

β-secretase (BACE) [4] = molecular target: T1, β-secretase (BACE); assay: BACE % Inhibition Assay (Example 161), (Aedens)-[…]-(Dabcyl K-amide) substrate; conditions: % error ±10%
Description: The following reagents were used in this assay: sodium acetate, PEG8000 (Sigma), DMSO, HEPES, (Aedens)-[…]-(Dabcyl K-amide) substrate, β-secretase (BACE) (Panvera), and 96-well plate (HE microplate, Molecular Devices).
as §1, with “substrate” for “FS1-substrate”
Test compounds were dissolved in DMSO to 10 mM.
as §2, with “The screening” for “The”, “the” for “the FS1”, “solution. The plates were then incubated for 1 hour at room temperature.” for “solution.”
The procedure for the blank was as follows. 15 μL of assay buffer was pipetted into each well to be used as a blank control. To each well was then added 2 μL of vehicle and 10 μL of substrate working solution. The plates were then incubated for 1 hour at room temperature.
as §3, with “15 μl” for “15 μL”, “the” for “the FS1”, “solution. The plates were then incubated for 1 hour at room temperature.” for “solution.”
For test compounds, % inhibition was determined at each concentration as follows: % Inhibition=[[…]][FI(positive control)−FI(negative control)]

T1 sequence (P56817 46-501): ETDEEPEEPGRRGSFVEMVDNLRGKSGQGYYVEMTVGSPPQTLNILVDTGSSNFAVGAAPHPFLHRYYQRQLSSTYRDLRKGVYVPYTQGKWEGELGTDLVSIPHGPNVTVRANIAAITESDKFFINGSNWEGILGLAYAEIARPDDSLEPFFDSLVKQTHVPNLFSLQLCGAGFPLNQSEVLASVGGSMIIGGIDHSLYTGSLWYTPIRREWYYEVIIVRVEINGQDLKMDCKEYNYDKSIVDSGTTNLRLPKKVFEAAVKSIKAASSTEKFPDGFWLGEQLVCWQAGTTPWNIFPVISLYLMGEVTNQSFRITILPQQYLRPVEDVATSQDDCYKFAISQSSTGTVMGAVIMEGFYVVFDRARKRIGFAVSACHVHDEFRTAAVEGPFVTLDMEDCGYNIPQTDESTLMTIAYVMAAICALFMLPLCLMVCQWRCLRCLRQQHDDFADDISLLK

IC50 (β-secretase (BACE) [1]) [µM]	Ki (β-secretase (BACE) [2]) [µM]	inhibition at 3 µM (β-secretase (BACE) [3]; 3 μM test compound) [%]	inhibition at 0.3 µM (β-secretase (BACE) [3]; 0.3 μM test compound) [%]	inhibition at 1 µM (β-secretase (BACE) [3]; 1 μM test compound) [%]	% Inhibition (β-secretase (BACE) [4]; 0.3 μM test compound) [%]	Compound	also measured
–	–	–	–	–	64	NC1=Nc2ccc(Oc3ccccc3)cc2CN1C(CNC(=O)CCC1CCCC1)C1CCCCC1 (stereo not drawn) [Compound 366]	–
–	–	–	–	–	85	CC(C)CC(=O)NCC(C1CCCCC1)N1Cc2cc(Oc3ccccc3)ccc2N=C1N (stereo not drawn) [Compound 389]	% Inhibition (β-secretase (BACE) [4]; 1 μM test compound): 112%; % Inhibition (β-secretase (BACE) [4]; 3 μM test compound): 120%
–	0.57	–	–	–	–	NC1=Nc2ccc(Oc3ccccc3)cc2CN1C(CNC(=O)C1(c2ccc(Cl)cc2)CCCC1)C1CCCCC1 (stereo not drawn) [Compound 390]	inhibition at 0.3 µM (β-secretase (BACE) [4]; 0.3 μM test compound): < 30%; inhibition at 1 µM (β-secretase (BACE) [4]; 1 μM test compound): 50%; inhibition at 3 µM (β-secretase (BACE) [4]; 3 μM test compound): 102%
–	–	–	–	–	35	NC1=Nc2ccc(Oc3ccccc3)cc2CN1C(CCNC(=O)C1CCCCC1)C1CCCCC1 (stereo not drawn) [Compound 391]	% Inhibition (β-secretase (BACE) [4]; 1 μM test compound): 93%; % Inhibition (β-secretase (BACE) [4]; 3 μM test compound): 115%
–	–	–	–	–	75	NC1=Nc2ccc(Oc3ccccc3)cc2CN1C(CCNC(=O)C1CCCC1)C1CCCCC1 (stereo not drawn) [Compound 392]	% Inhibition (β-secretase (BACE) [4]; 3 μM test compound): 120%
–	0.056	121	78	113	–	CCCC(CNC(=O)C12CC3CC(CC(C3)C1)C2)N1Cc2cc(Oc3ccccc3)ccc2N=C1N (stereo not drawn) [Compound 602]	–
–	0.033	122	101	114	–	CCC[C@H](CNC(=O)CCC(C)C)N1Cc2cc(Oc3ccccc3)ccc2N=C1N [Compound 603]	–

The next lines start with the molecule.

Compound	IC50 (β-secretase (BACE) [1]) [µM]	Ki (β-secretase (BACE) [2]) [µM]	inhibition at 3 µM (β-secretase (BACE) [3]; 3 μM test compound) [%]	inhibition at 0.3 µM (β-secretase (BACE) [3]; 0.3 μM test compound) [%]	inhibition at 1 µM (β-secretase (BACE) [3]; 1 μM test compound) [%]	% Inhibition (β-secretase (BACE) [4]; 0.3 μM test compound) [%]	also measured
CCCC(CCCC(=O)NC1CCCCC1)N1Cc2cc(Oc3ccccc3)ccc2N=C1N (stereo not drawn) [Compound 91]	0.6	0.32	68	–	–	–	inhibition at 10 µM (β-secretase (BACE) [3]): 117%
NC1=Nc2ccc(Oc3ccccc3)cc2CN1Cc1cccc(C(=O)N(C2CCCCC2)C2CCCCC2)c1 [Compound 98]	–	–	–	–	–	–	% Inhibition (β-secretase (BACE) [4]; 3 μM test compound): 76%; % Inhibition (β-secretase (BACE) [4]; 10 μM test compound): 99%; % Inhibition (FS) (β-secretase (BACE) [3]; 0.3 μM test compound): 49%; % Inhibition (FS) (β-secretase (BACE) [3]; 1 μM test compound): 93%; % Inhibition (FS) (β-secretase (BACE) [3]; 3 μM test compound): 114%
CCCC(CCC(=O)NC1CCCCCC1)N1Cc2cc(Oc3ccccc3)ccc2N=C1N (stereo not drawn) [Compound 128]	0.072	0.13	97	–	–	–	inhibition at 10 µM (β-secretase (BACE) [3]): 108%
CCCCCC(CCC(=O)NC1CCCCCC1)N1Cc2cc(Oc3ccccc3)ccc2N=C1N (stereo not drawn) [Compound 150]	–	0.46	90	< 30	< 30	–	–
CN(C(=O)CC(C1CCCCC1)N1Cc2cc(Oc3ccccc3)ccc2N=C1N)C1CCCCC1 (stereo not drawn) [Compound 199]	–	0.51	82	< 30	< 30	–	–
CCCN1Cc2cc(Oc3cccc(NS(=O)(=O)c4cccc5nsnc45)c3)ccc2N=C1N [Compound 247]	1.7	–	–	–	–	–	–
CC(C)(C)OC(=O)NCC(C1CCCCC1)N1Cc2cc(Oc3ccccc3)ccc2N=C1N (stereo not drawn) [Compound 257]	0.083	0.056	–	67	105	–	–
NC1=Nc2ccc(Oc3ccccc3)cc2CN1C(CNC(=O)C12CC3CC(CC(C3)C1)C2)C1CCCCC1 (stereo not drawn) [Compound 312]	0.039	0.039	115	74	103	–	–
CC(C)(C)C(=O)NCC(C1CCCCC1)N1Cc2cc(Oc3ccccc3)ccc2N=C1N (stereo not drawn) [Compound 317]	0.39	0.18	–	–	–	–	inhibition at 0.3 µM (β-secretase (BACE) [4]; 0.3 μM test compound): < 30%; inhibition at 1 µM (β-secretase (BACE) [4]; 1 μM test compound): 66%; inhibition at 3 µM (β-secretase (BACE) [4]; 3 μM test compound): 107%
CCCC(CNC(=O)OC(C)(C)C)N1Cc2cc(Oc3ccccc3)ccc2N=C1N (stereo not drawn) [Compound 318]	–	–	–	–	–	32	% Inhibition (β-secretase (BACE) [4]; 1 μM test compound): 70%; % Inhibition (β-secretase (BACE) [4]; 3 μM test compound): 103%
NC1=Nc2ccc(Oc3ccccc3)cc2CN1C(CNC(=O)C1CCCCC1)c1ccccc1 (stereo not drawn) [Compound 342]	–	–	–	–	–	50	% Inhibition (β-secretase (BACE) [4]; 1 μM test compound): 93%
CCCC(CNC(=O)C1CCCCC1)N1Cc2cc(Oc3ccccc3)ccc2N=C1N (stereo not drawn) [Compound 343]	–	–	–	–	–	81	–
